Converted amounts (≈) assume the structure as drawn.
What was measured:
Format in all cases: functional
Bacillus = experiment: Antibacterial activity against Bacillus proteus by disc diffusion method
Staphylococcus aureus [1] = experiment: Ratio of streptomycin MIC to compound MIC for methicillin-resistant Staphylococcus aureus N 315
Bacillus subtilis = experiment: Antibacterial activity against Bacillus subtilis ATCC 6633 by disc diffusion method
Candida = experiment: Antifungal activity against Candida mycoderma by disc diffusion method
Candida albicans = experiment: Antifungal activity against Candida albicans ATCC 76615 by disc diffusion method
Staphylococcus aureus [2] = experiment: Antibacterial activity against methicillin-resistant Staphylococcus aureus N 315 by disc diffusion method
Escherichia coli = experiment: Antibacterial activity against Escherichia coli JM 109 by disc diffusion method
Staphylococcus aureus [3] = experiment: Antibacterial activity against Staphylococcus aureus ATCC 25923 by disc diffusion method

CC(C)(C)OC(=O)N1CCN(CC(=O)Nc2cccc3c2CCC(=O)N3)CC1.Cl
MIC (Bacillus): 128 µg/mL | Ratio (Staphylococcus aureus [1]): 8 | MIC (Bacillus subtilis): 32 µg/mL | MIC (Candida): 32 µg/mL | MIC (Candida albicans): 128 µg/mL | MIC (Staphylococcus aureus [2]): 32 µg/mL | MIC (Escherichia coli): 16 µg/mL | MIC (Staphylococcus aureus [3]): 64 µg/mL

Cl.O=C1CCc2c(cccc2NC(=O)Cn2cnc3ccccc32)N1
MIC (Bacillus): 256 µg/mL | Ratio (Staphylococcus aureus [1]): 8 | MIC (Bacillus subtilis): 128 µg/mL | MIC (Candida): 32 µg/mL | MIC (Candida albicans): 256 µg/mL | MIC (Staphylococcus aureus [2]): 32 µg/mL | MIC (Escherichia coli): 32 µg/mL | MIC (Staphylococcus aureus [3]): 16 µg/mL

CN[C@@H]1[C@H](O[C@H]2[C@H](O[C@H]3[C@H](O)[C@@H](O)[C@H](N=C(N)N)[C@@H](O)[C@@H]3N=C(N)N)O[C@@H](C)[C@]2(O)C=O)O[C@@H](CO)[C@H](O)[C@H]1O [STREPTOMYCIN]
MIC (Bacillus): 64 µg/mL (≈ 110 µM) | MIC (Bacillus subtilis): 32 µg/mL (≈ 55 µM) | MIC (Staphylococcus aureus [2]): 512 µg/mL (≈ 880 µM) | MIC (Escherichia coli): 16 µg/mL (≈ 27.5 µM) | MIC (Staphylococcus aureus [3]): 32 µg/mL (≈ 55 µM)

OC(Cn1cncn1)(Cn1cncn1)c1ccc(F)cc1F [FLUCONAZOLE]
MIC (Candida): 8 µg/mL (≈ 26.1 µM) | MIC (Candida albicans): 4 µg/mL (≈ 13.1 µM)

Cl.O=C1CCc2c(cccc2NC(=O)CN2CCNCC2)N1
MIC (Bacillus): 16 µg/mL | Ratio (Staphylococcus aureus [1]): 8 | MIC (Bacillus subtilis): 64 µg/mL | MIC (Candida): 4 µg/mL | MIC (Candida albicans): 32 µg/mL | MIC (Staphylococcus aureus [2]): 32 µg/mL | MIC (Escherichia coli): 128 µg/mL | MIC (Staphylococcus aureus [3]): 64 µg/mL

Cl.O=C1CCc2c(cccc2NC(=O)CN2CCCCC2)N1
MIC (Bacillus): 128 µg/mL | Ratio (Staphylococcus aureus [1]): 8 | MIC (Bacillus subtilis): 16 µg/mL | MIC (Candida): 256 µg/mL | MIC (Candida albicans): 128 µg/mL | MIC (Staphylococcus aureus [2]): 64 µg/mL | MIC (Escherichia coli): 32 µg/mL | MIC (Staphylococcus aureus [3]): 32 µg/mL

Cl.O=C1CCc2c(cccc2NC(=O)CN(Cc2ccccc2)Cc2ccccc2)N1
MIC (Bacillus): 32 µg/mL | MIC (Bacillus subtilis): 32 µg/mL | MIC (Candida): 256 µg/mL | MIC (Candida albicans): 128 µg/mL | MIC (Staphylococcus aureus [2]): 128 µg/mL | MIC (Escherichia coli): 64 µg/mL | MIC (Staphylococcus aureus [3]): 128 µg/mL

Cl.O=C1CCc2c(cccc2NC(=O)Cn2ccnc2)N1
MIC (Bacillus): 64 µg/mL | Ratio (Staphylococcus aureus [1]): 8 | MIC (Bacillus subtilis): 32 µg/mL | MIC (Candida): 16 µg/mL | MIC (Candida albicans): 16 µg/mL | MIC (Staphylococcus aureus [2]): 64 µg/mL | MIC (Escherichia coli): 64 µg/mL | MIC (Staphylococcus aureus [3]): 16 µg/mL

Cl.O=C1CCc2c(cccc2NC(=O)CNCc2ccccc2)N1
MIC (Bacillus): 64 µg/mL | MIC (Bacillus subtilis): 64 µg/mL | MIC (Candida): 32 µg/mL | MIC (Candida albicans): 32 µg/mL | MIC (Staphylococcus aureus [2]): 256 µg/mL | MIC (Escherichia coli): 64 µg/mL | MIC (Staphylococcus aureus [3]): 32 µg/mL

Cl.O=C1CCc2c(cccc2NC(=O)CN2CCOCC2)N1
MIC (Bacillus): 128 µg/mL | Ratio (Staphylococcus aureus [1]): 8 | MIC (Bacillus subtilis): 128 µg/mL | MIC (Candida): 32 µg/mL | MIC (Candida albicans): 64 µg/mL | MIC (Staphylococcus aureus [2]): 32 µg/mL | MIC (Escherichia coli): 32 µg/mL | MIC (Staphylococcus aureus [3]): 128 µg/mL

CC(C)(C)NCC(=O)Nc1cccc2c1CCC(=O)N2.Cl
MIC (Bacillus): 256 µg/mL | MIC (Bacillus subtilis): 256 µg/mL | MIC (Candida): 32 µg/mL | MIC (Candida albicans): 16 µg/mL | MIC (Staphylococcus aureus [2]): 128 µg/mL | MIC (Escherichia coli): 32 µg/mL | MIC (Staphylococcus aureus [3]): 32 µg/mL

Cl.O=C1CCc2c(cccc2NC(=O)CN(CCO)CCO)N1
MIC (Bacillus): 128 µg/mL | MIC (Bacillus subtilis): 128 µg/mL | MIC (Candida): 128 µg/mL | MIC (Candida albicans): 4 µg/mL | MIC (Staphylococcus aureus [2]): 64 µg/mL | MIC (Escherichia coli): 128 µg/mL | MIC (Staphylococcus aureus [3]): 128 µg/mL

CCCN(CCC)CC(=O)Nc1cccc2c1CCC(=O)N2.Cl
MIC (Bacillus): 256 µg/mL | MIC (Bacillus subtilis): 64 µg/mL | MIC (Candida): 16 µg/mL | MIC (Candida albicans): 256 µg/mL | MIC (Staphylococcus aureus [2]): 64 µg/mL | MIC (Escherichia coli): 64 µg/mL | MIC (Staphylococcus aureus [3]): 8 µg/mL

Cl.O=C1CCc2c(cccc2NC(=O)CN2CCCC2)N1
MIC (Bacillus): 128 µg/mL | Ratio (Staphylococcus aureus [1]): 8 | MIC (Bacillus subtilis): 32 µg/mL | MIC (Candida): 128 µg/mL | MIC (Candida albicans): 32 µg/mL | MIC (Staphylococcus aureus [2]): 32 µg/mL | MIC (Escherichia coli): 32 µg/mL | MIC (Staphylococcus aureus [3]): 32 µg/mL

CCN(CC)CC(=O)Nc1cccc2c1CCC(=O)N2.Cl
MIC (Bacillus): 256 µg/mL | MIC (Bacillus subtilis): 32 µg/mL | MIC (Candida): 32 µg/mL | MIC (Candida albicans): 256 µg/mL | MIC (Staphylococcus aureus [2]): 64 µg/mL | MIC (Escherichia coli): 8 µg/mL | MIC (Staphylococcus aureus [3]): 128 µg/mL

Reference: ChEMBL document CHEMBL2069236, “Synthesis and biological evaluation of novel N-acyl substituted quinolin-2(1H)-one derivatives as potential antimicrobial agents” (2012)
